Among the data in publication PMC3511435, “A Transposon-Derived DNA Polymerase from Entamoeba histolytica Displays Intrinsic Strand Displacement, Processivity and Lesion Bypass” (PLoS ONE, 2012) are IC50 values, retold here.

For the test, the system named is T1, EhDNApolB2.
T1 construct: N-terminal 153 residues deleted, 660-aa C-terminal exonuclease and polymerase region, pCOLD I vector (IMAC-purified), E. coli BL21 DE3 Rosetta II, 78 kDa
Briefly: primer extension on M13mp18 ssDNA, denaturing gel, phosphorimaging. The test is classed as biochemical, Entamoeba histolytica. To be noted: 25 µM dNTPs; 1 nM 32P-labelled 17mer primer / circular M13mp18 ssDNA; 20 nM enzyme; 10 min, 37 °C; read-out: reduced by half at a concentration of.

Consider `C[C@@]1(CO)[C@H](O)CC[C@@]2(C)[C@H]1CC[C@H]1C[C@@H]3C[C@@]12CC[C@]3(O)CO` [aphidicolin], for which the IC50 was 242 µM.
